Experimental data as given in US20230192705A1, “SHP2 INHIBITORS, COMPOSITIONS AND USES THEREOF” (Betta Pharmaceuticals Co., Ltd, priority 2020, published 2023).

Molecular target: T1, SHP2 (Homo sapiens, UniProt Q06124)
T1 sequence (Q06124 1-593): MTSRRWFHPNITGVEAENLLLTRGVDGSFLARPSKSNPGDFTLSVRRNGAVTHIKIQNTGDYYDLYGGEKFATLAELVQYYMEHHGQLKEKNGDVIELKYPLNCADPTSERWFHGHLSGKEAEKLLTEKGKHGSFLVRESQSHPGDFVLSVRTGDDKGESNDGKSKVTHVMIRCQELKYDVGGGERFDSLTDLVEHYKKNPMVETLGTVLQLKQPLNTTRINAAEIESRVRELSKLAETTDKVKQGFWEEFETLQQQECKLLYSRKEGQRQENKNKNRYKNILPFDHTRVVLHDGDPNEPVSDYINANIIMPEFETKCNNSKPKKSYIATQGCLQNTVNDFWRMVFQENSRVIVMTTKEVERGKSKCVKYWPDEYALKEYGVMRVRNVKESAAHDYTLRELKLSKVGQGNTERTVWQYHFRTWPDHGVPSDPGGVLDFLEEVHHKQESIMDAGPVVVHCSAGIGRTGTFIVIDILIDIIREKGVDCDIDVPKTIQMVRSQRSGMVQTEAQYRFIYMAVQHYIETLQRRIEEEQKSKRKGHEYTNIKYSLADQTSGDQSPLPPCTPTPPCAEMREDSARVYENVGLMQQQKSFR
Experiment: SHP2 allosteric inhibitor enzyme activity assay (DiFMUP fluorescence)
Format: biochemical
Conditions: class symbols
Source text: SHP2 is activated by the binding of a bis-tyrosyl-phosphorylated peptide to its Src homologous 2 (SH2) domain. This subsequent activation step leads to the release of the automatic inhibition interface of SHP2, which in turn activates the SHP2 protein tyrosine phosphatase (PTP) and can be used for substrate recognition and reaction catalysis. The catalytic activity of SHP2 was monitored using the alternative DiFMUP in a rapid fluorescence assay format.
Assay procedures are as follows:
(1) Compound Formulation:
The compound of the present invention (10 mM stock solution) was diluted to a suitable multiple with 100% DMSO and assay buffer, and the final test concentration of the compound of the present invention was 1 μM, 0.333 μM, 0.111 μM, 0.0370 μM, 0.0124 μM, 0.00412 μM, 0.00137 μM, 0.00046 μM, 0.00015 μM, 0.00 μM;
(2) Preparation of Enzyme Reaction Working Fluid:
SHP2 enzyme activity was performed using a final reaction volume of 50 μL and the following assay buffer conditions in 96-well black polystyrene plates (flat bottom, low flange, non-bonding surface) (Perki Elmer, Cat #6005270) at room temperature: 60 mM HEPES, 75 mM NaCl, 75 mM KCl, 0.05% BRIJ-35, 1 mM EDTA, 5 mM DTT.
(3) Enzyme Catalytic Reaction and Data Monitoring:
Compounds of the present invention were added to the corresponding 96-well plates, and no compound and enzyme were provided as blank test wells. SHP2 Activating Peptide (IRS1_pY1172 (dPEG8)pY1222) was placed on ice for melting, and 0.5 μM was added per well, then 0.2 ng SHP2 protein samples were added to corresponding well plates, and incubated at room temperature for 1 hour. Substrate DiFMUP (Invitrogen, Cat #D6567) was added to the reaction at room temperature for 1 hour. Fluorescence signals were monitored using an enzyme reader (Envision, Perki Elmer) using excitation wavelengths and emission wavelengths of 340 nm and 450 nm, respectively.
Inhibition %=[1−(Conversion_sample−Conversion_min)/(Conversion_max−Conversion_min)]*100% Calculation formula: […]
where: Conversion_sample is the mean reading of the sample wells; Conversion_min is the mean reading of blank control wells, representing the reading of the wells without enzyme; Conversion_max is the mean of positive control wells, representing the reading of the wells without inhibitor.
The dose-response curve is fitted with GraphPad Prism software and IC50 was calculated by the “log[inhibitor] vs. response-variable slope” program.

Structure (SMILES): N[C@@H]1c2ccccc2CC12CCN(c1nc3[nH]nc(C4(c5cccc(O)c5Cl)CC4)c3c(=O)[nH]1)CC2 [Example 50, (S)-6-(1-amino-1,3-dihydrospiro[indene-2,4′-piperidin]-1′-yl)-3-(1-(2-chloro-3-hydroxyphenyl)cyclopropyl)-1,5-dihydro-4H-pyrazolo[3,4-d]pyrimidin-4-one]
- IC50: ≤ 20 nM

Structure (SMILES): N[C@@H]1c2ccccc2CC12CCN(c1nc3[nH]nc(C4(c5cnccn5)CC4)c3c(=O)[nH]1)CC2 [Example 51, (S)-6-(1-amino-1,3-dihydrospiro[indene-2,4′-piperidin]-1′-yl)-3-(1-(pyrazin-2-yl)cyclopropyl)-1,5-dihydro-4H-pyrazolo[3,4-d]pyrimidin-4-one]
- IC50: ≤ 20 nM

Structure (SMILES): N[C@@H]1c2ccccc2CC12CCN(c1nc3[nH]nc(C4(c5cccc(OC(F)F)c5)CC4)c3c(=O)[nH]1)CC2 [Example 52, (S)-6-(1-amino-1,3-dihydrospiro[indene-2,4′-piperidin]-1′-yl)-3-(1-(3-(difluoromethoxy)plienyl)cyclo-propyl)-1,5-dihydro-4H-pyrazolo[3,4-d]pyrimidin-4-one]
- IC50: ≤ 20 nM

Structure (SMILES): N[C@@H]1c2ccccc2CC12CCN(c1nc3[nH]nc(C4(c5ccnc(OC(F)F)c5)CC4)c3c(=O)[nH]1)CC2 [Example 53, (S)-6-(1-amino-1,3-dihydrospiro[indene-2,4′-piperidin]-1′-yl)-3-(1-(2-(difluoromethoxy)pyridin-4-yl)cyclopropyl)-1,5-dihydro-4H-pyrazolo[3,4-d]pyrimidin-4-one]
- IC50: ≤ 20 nM

Structure (SMILES): CN(C)c1cc(C2(c3n[nH]c4nc(N5CCC6(CC5)Cc5ccccc5[C@H]6N)[nH]c(=O)c34)CC2)ccn1 [Example 54, (S)-6-(1-amino-1,3-dihydrospiro[indene-2,4′-piperidin]-1′-yl)-3-(1-(2-(dimethylamino)pyridin-4-yl)cyclopropyl)-1,5-dihydro-4H-pyrazolo[3,4-d]pyrimidin-4-one]
- IC50: ≤ 20 nM

Structure (SMILES): N[C@@H]1c2ccccc2CC12CCN(c1nc3[nH]nc(C4(c5ccnc(CN6CCCC6)c5)CC4)c3c(=O)[nH]1)CC2 [Example 55, (S)-6-(1-amino-1,3-dihydrospiro[indene-2,4′-piperidin]-1′-yl)-3-(1-(2-(pyrrolidin-1-ylmethyl)pyridin-4-yl)cyclopropyl)-1,5-dihydro-4H-pyrazolo[3,4-d]pyrimidin-4-one]
- IC50: 20 to 60 nM

Structure (SMILES): N[C@@H]1c2ccccc2CC12CCN(c1nc3[nH]nc(C4(c5cnn(-c6ccccc6)c5)CC4)c3c(=O)[nH]1)CC2 [Example 56, (S)-6-(1-amino-1,3-dihydrospiro[indene-2,4′-piperidin]-1′-yl)-3-(1-(1-phenyl-1H-pyrazol-4-yl)cyclopropyl)-1,5-dihydro-4H-pyrazolo[3,4-d]pyrimidin-4-one]
- IC50: 20 to 60 nM

Structure (SMILES): N[C@@H]1c2ccccc2CC12CCN(c1nc3[nH]nc(C4(c5cnn(Cc6ccccc6)c5)CC4)c3c(=O)[nH]1)CC2 [Example 57, (S)-6-(1-amino-1,3-dihydrospiro[indene-2,4′-piperidin]-1′-yl)-3-(1-(1-benzyl-1H-pyrazol-4-yl)cyclopropyl)-1,5-dihydro-4H-pyrazolo[3,4-d]pyrimidin-4-one]
- IC50: ≤ 20 nM

Structure (SMILES): N[C@@H]1c2ccccc2CC12CCN(c1nc3[nH]nc(C4(c5ccncc5F)CC4)c3c(=O)[nH]1)CC2 [Example 58, (S)-6-(1-amino-1,3-dihydrospiro[indene-2,4′-piperidin]-1′-yl)-3-(1-(3-fluoropyridin-4-yl)cyclopropyl)-1,5-dihydro-4H-pyrazolo[3,4-d]pyrimidin-4-one]
- IC50: ≤ 20 nM

Structure (SMILES): Nc1nccc(C2(c3n[nH]c4nc(N5CCC6(CC5)Cc5ccccc5[C@H]6N)[nH]c(=O)c34)CC2)c1F [Example 59, (S)-6-(1-amino-1,3-dihydrospiro[indene-2,4′-piperidin]-1′-yl)-3-(1-(2-amino-3-fluoropyridin-4-yl)cyclopropyl)-1,5-dihydro-4H-pyrazolo[3,4-d]pyrimidin-4-one]
- IC50: ≤ 20 nM

Structure (SMILES): CC(=O)N1CC(F)(F)c2c1cccc2C1(c2n[nH]c3nc(N4CCC5(CC4)Cc4ccccc4[C@H]5N)[nH]c(=O)c23)CC1 [Example 60, (S)-3-(1-(1-acetyl-3,3-difluoroindolin-4-yl)cyclopropyl)-6-(1-amino-1,3-dihydrospiro[indene-2,4′-piperidin]-1′-yl)-1,5-dihydro-4H-pyrazolo[3,4-d]pyrimidin-4-one]
- IC50: ≤ 20 nM

Structure (SMILES): CN(C)c1nccc(C2(c3n[nH]c4nc(N5CCC6(CC5)Cc5ccccc5[C@H]6N)[nH]c(=O)c34)CC2)c1Cl [Example 61, (S)-6-(1-amino-1,3-dihydrospiro[indene-2,4′-piperidin]-1′-yl)-3-(1-(3-chloro-2-(dimethylamino)pyridin-4-yl)cyclopropyl)-1,5-dihydro-4H-pyrazolo[3,4-d]pyrimidin-4-one]
- IC50: ≤ 20 nM

Structure (SMILES): COc1nccc(C2(c3n[nH]c4nc(N5CCC6(CC5)Cc5ccccc5[C@H]6N)[nH]c(=O)c34)CC2)c1Cl [Example 62, (S)-6-(1-amino-1,3-dihydrospiro[indene-2,4′-piperidin]-1′-yl)-3-(1-(3-chloro-2-methoxypyridin-4-yl)cyclopropyl)-1,5-dihydro-4H-pyrazolo[3,4-d]pyrimidin-4-one]
- IC50: ≤ 20 nM

Structure (SMILES): N[C@@H]1c2ccccc2CC12CCN(c1nc3[nH]nc(C4(c5cccc(-c6ccccc6)c5)CC4)c3c(=O)[nH]1)CC2 [Example 63, (S)-3-(1-([1,1′-biphenyl]-3-yl)cyclopropyl)-6-(1-amino-1,3-dihydrospiro[indene-2,4′-piperidin]-1′-yl)-1,5-dihydro-4H-pyrazolo[3,4-d]pyrimidin-4-one]
- IC50: ≤ 20 nM

Structure (SMILES): N[C@@H]1c2ccccc2CC12CCN(c1nc3[nH]nc(C4(c5ccnc(N6CCOCC6)c5Cl)CC4)c3c(=O)[nH]1)CC2 [Example 65, (S)-6-(1-amino-1,3-dihydrospiro[indene-2,4′-piperidin]-1′-yl)-3-(1-(3-chloro-2-morpholinopyridin-4-yl)cyclopropyl)-1,5-dihydro-4H-pyrazolo[3,4-d]pyrimidin-4-one]
- IC50: 20 to 60 nM

Structure (SMILES): N[C@@H]1c2ccccc2CC12CCN(c1nc3[nH]nc(C4(c5ccnc(N6CCC6)c5Cl)CC4)c3c(=O)[nH]1)CC2 [Example 66, (S)-6-(1-amino-1,3-dihydrospiro[indene-2,4′-piperidin]-1′-yl)-3-(1-(2-(azetidin-1-yl)-3-chloropyridin-4-yl)cyclopropyl)-1,5-dihydro-4H-pyrazolo[3,4-d]pyrimidin-4-one]
- IC50: ≤ 20 nM

Structure (SMILES): N[C@@H]1c2ccccc2CC12CCN(c1nc3[nH]nc(C4(c5ccnc(NC6CCC6)c5Cl)CC4)c3c(=O)[nH]1)CC2 [Example 67, (S)-6-(1-amino-1,3-dihydrospiro[indene-2,4′-piperidin]-1′-yl)-3-(1-(3-chloro-2-(cyclobutylamino)pyridin-4-yl)cyclopropyl)-1,5-dihydro-4H-pyrazolo[3,4-d]pyrimidin-4-one]
- IC50: ≤ 20 nM

Structure (SMILES): N[C@@H]1c2ccccc2CC12CCN(c1nc3[nH]nc(C4(c5ccc(Cl)nn5)CC4)c3c(=O)[nH]1)CC2 [Example 69, (S)-6-(1-amino-1,3-dihydrospiro[indene-2,4′-piperidin]-1′-yl)-3-(1-(6-chloropyridazin-3-yl)cyclopropyl)-1,5-dihydro-4H-pyrazolo[3,4-d]pyrimidin-4-one]
- IC50: 20 to 60 nM

Structure (SMILES): N[C@@H]1c2ccccc2CC12CCN(c1nc3[nH]nc(C4(c5cnnc(Cl)c5)CC4)c3c(=O)[nH]1)CC2 [Example 70, (S)-6-(1-amino-1,3-dihydrospiro[indene-2,4′-piperidin]-1′-yl)-3-(1-(6-chloropyridazin-4-yl)cyclopropyl)-1,5-dihydro-4H-pyrazolo[3,4-d]pyrimidin-4-one]
- IC50: ≤ 20 nM
